The values below come from US8071797B2 (priority 2008, dated 2011).

The experiment has as its target T1, HCV polymerase (NS5B570n-Con1) (Hepatitis C virus genotype 1b, UniProt Q9WMX2).
T1 construct: contains a 21 amino acid deletion at the C-terminus relative to the full-length HCV polymerase; 6-histidine (N); made in house; host or cells: E. coli BL21 (DE) pLysS
In words: HCV NS5B RNA polymerase activity assay. In kind it is biochemical, HCV Con1 strain. The note with it: IC50 NS5B polymerase assay, Table I. As for the experimental part:
The enzymatic activity of HCV polymerase (NS5B570n-Con1) was measured as the incorporation of radiolabeled nucleotide monophosphates into acid insoluble RNA products. Unincorporated radiolabeled substrate was removed by filtration and scintillant was added to the washed and dried filter plate containing radiolabeled RNA product. The amount of RNA product generated by NS5B570-Con1 at the end of the reaction was directly proportional to the amount of light emitted by the scintillant.
The N-terminal 6-histidine tagged HCV polymerase, derived from HCV Con1 strain, genotype 1b (NS5B570n-Con1) contains a 21 amino acid deletion at the C-terminus relative to the full-length HCV polymerase and was purified from E. coli strain BL21 (DE) pLysS. The construct, containing the coding sequence of HCV NS5B Con1 (GenBank accession number AJ242654) was inserted into the plasmid construct pETI 7b, downstream of a T7 promoter expression cassette and transformed into E. coli. A single colony was grown overnight as a starter culture and later used inoculate 10 L of LB media supplemented with 100 μg/mL ampicillin at 37° C. Protein expression was induced by the addition of 0.25 mM isopropyl-β-D-thiogalactopyranoside (IPTG) when optical density at […] of the culture was between 0.6 and 0.8 and cells were harvested after 16 to 18 h at 30° C. NS5B570n-Con1 was purified to homogeneity using a three-step protocol including subsequent column chromatography on Ni-NTA, SP-Sepharose HP and Superdex 75 resins.
Each 50 μl enzymatic reaction contained 20 nM RNA template derived from the complementary sequence of the Internal Ribosome Entry Site (cIRES), 20 nM NS5B570n-Con1 enzyme, 0.5 μCi of tritiated UTP (Perkin Elmer catalog no. TRK-412; specific activity: 30 to 60 Ci/mmol; stock solution concentration from 7.5×10^-5 M to 20.6×10^-6 M), 1 μM each ATP, CTP, and GTP, 40 mM Tris-HCl pH 8.0, 40 mM NaCl, 4 mM DTT (dithiothreitol), 4 mM MgCl2, and 5 μl of compound serial diluted in DMSO. Reaction mixtures were assembled in 96-well filter plates (cat #MADVN0B, Millipore Co.) and incubated for 2 h at 30° C. Reactions were stopped by addition of 10% final (v/v) trichloroacetic acid and incubated for 40 min at 4° C. Reactions were filtered, washed with 8 reaction volumes of 10% (v/v) trichloroacetic acetic acid, 4 reaction volumes of 70% (v/v) ethanol, air dried, and 25 μl of scintillant (Microscint 20, Perkin-Elmer) was added to each reaction well.
The amount of light emitted from the scintillant was converted to counts per minute (CPM) on a Topcount® plate reader (Perkin-Elmer, Energy Range: Low, Efficiency Mode Normal, Count Time: 1 min, Background Subtract: none, Cross talk reduction: Off).
Data was analyzed in Excel® (Microsoft®) and ActivityBase® (idbsg). The reaction in the absence of enzyme was used to determine the background signal, which was subtracted from the enzymatic reactions. Positive control reactions were performed in the absence of compound, from which the background corrected activity was set as 100% polymerase activity. All data was expressed as a percentage of the positive control. The compound concentration at which the enzyme-catalyzed rate of RNA synthesis was reduced by 50% (IC50) was calculated by fitting
[formula] equation (t) to the data.where “Y” corresponds to the relative enzyme activity (in %), “% Min” is the residual relative activity at saturating compound concentration, “% Max” is the relative maximum enzymatic activity, “X” corresponds to the compound concentration, and “S” is the Hill coefficient (or slope).
One may read the IC50 as the concentration that inhibits the measured activity by half. `CNC(=O)c1c(-c2ccc(Nc3ccc(F)cc3)cc2)oc2cc(N(CCO)S(C)(=O)=O)c(OC)cc12` [Compound I-2] had an IC50 of 100 nM.

Regarding `CNC(=O)c1c(-c2ccc(Nc3ccc(Cl)cc3)cc2)oc2cc(N(CCO)S(C)(=O)=O)c(OC)cc12` [Compound I-3], the IC50 came to 214 nM.

In the case of `CNC(=O)c1c(-c2ccc(Oc3ccccc3)cc2)oc2cc(N(CCO)S(C)(=O)=O)c(OC)cc12` [Compound I-4, 6-[(2-Hydroxy-ethyl)-methanesulfonyl-amino]-5-methoxy-2-(4-phenoxy-phenyl)-benzofuran-3-carboxylic acid methylamide], 62 nM corresponded to half-maximal inhibition (IC50).

As for `CNC(=O)c1c(-c2ccc(Nc3ccccc3F)cc2)oc2cc(N(CCO)S(C)(=O)=O)c(OC)cc12` [Compound I-5], it took 34 nM to reach half-maximal inhibition (IC50).

With `CNC(=O)c1c(-c2ccc(Nc3cccc(OC)c3)cc2)oc2cc(N(CCO)S(C)(=O)=O)c(OC)cc12` [Compound I-7], half-maximal inhibition (IC50) required 136 nM.

The molecule `CNC(=O)c1c(-c2ccc(Oc3ccc(F)cc3)cc2)oc2cc(N(CCO)S(C)(=O)=O)c(OC)cc12` [Compound I-8] came in with an IC50 of 57 nM.

`CNC(=O)c1c(-c2ccc(Oc3ccccc3F)cc2)oc2cc(N(CCO)S(C)(=O)=O)c(OC)cc12` [Compound I-9] displayed an IC50 of 85 nM.

`CNC(=O)c1c(-c2ccc(Nc3ccc(F)c(F)c3)cc2)oc2cc(N(CCO)S(C)(=O)=O)c(OC)cc12` [Compound I-10] yielded an IC50 of 65 nM.

`CNC(=O)c1c(-c2ccc(Nc3ccc(C(F)(F)F)cc3)cc2)oc2cc(N(CCO)S(C)(=O)=O)c(OC)cc12` [Compound I-11] came in with an IC50 of 1950 nM.

Take `CNC(=O)c1c(-c2ccc(Nc3cccc(C#N)c3)cc2)oc2cc(N(CCO)S(C)(=O)=O)c(OC)cc12` [Compound I-12]: the IC50 was 298 nM.

In turn, `CNC(=O)c1c(-c2ccc(Nc3ccc(C#N)cc3)cc2)oc2cc(N(CCO)S(C)(=O)=O)c(OC)cc12` [Compound I-13] registered an IC50 of 1840 nM.

Turning to `CNC(=O)c1c(-c2ccc(Nc3ccc(F)cc3F)cc2)oc2cc(N(CCO)S(C)(=O)=O)c(OC)cc12` [Compound I-14], the half-inhibitory concentration (IC50) was 24 nM.

On to `CNC(=O)c1c(-c2ccc(Nc3ccc(F)c(Cl)c3)cc2)oc2cc(N(CCO)S(C)(=O)=O)c(OC)cc12` [Compound I-15], for which the IC50 turned out to be 82 nM.

Consider `CNC(=O)c1c(-c2ccc(Nc3cc(F)cc(F)c3)cc2)oc2cc(N(CCO)S(C)(=O)=O)c(OC)cc12` [Compound I-16], for which the IC50 is 172 nM.

For the molecule `CCN(c1cc2oc(-c3ccc(Nc4ccc(F)cc4)cc3)c(C(=O)NC)c2cc1OC)S(C)(=O)=O` [Compound I-17], it took 81 nM to reach half-maximal inhibition (IC50).

On to `CCN(c1cc2oc(-c3ccc(Nc4ccccc4F)cc3)c(C(=O)NC)c2cc1OC)S(C)(=O)=O` [Compound I-18], for which the IC50 was determined as 5 nM.

Turning to `CNC(=O)c1c(-c2ccc(Nc3ccc(C)cc3)cc2)oc2cc(N(CCO)S(C)(=O)=O)c(OC)cc12` [Compound I-20], the half-inhibitory concentration (IC50) worked out at 92 nM.

As for `CNC(=O)c1c(-c2ccc(Nc3cccc(F)c3F)cc2)oc2cc(N(CCO)S(C)(=O)=O)c(OC)cc12` [Compound I-21], the IC50 worked out at 59 nM.

Molecule `CNC(=O)c1c(-c2ccc(Oc3cccc(F)c3F)cc2)oc2cc(N(CCO)S(C)(=O)=O)c(OC)cc12` [Compound I-22] returned an IC50 of 55 nM.

In the case of `CCN(c1cc2oc(-c3ccc(Oc4ccccc4F)cc3)c(C(=O)NC)c2cc1OC)S(C)(=O)=O` [Compound I-23], half-maximal inhibition (IC50) required 52 nM.

`CCN(c1cc2oc(-c3ccc(Oc4ccc(F)cc4)cc3)c(C(=O)NC)c2cc1OC)S(C)(=O)=O` [Compound I-24] showed an IC50 of 130 nM.

Regarding `CNC(=O)c1c(-c2ccc(Nc3c(F)cccc3F)cc2)oc2cc(N(CCO)S(C)(=O)=O)c(OC)cc12` [Compound I-25], the midpoint of inhibition, the IC50, lay at 123 nM.

`CNC(=O)c1c(-c2ccc(Oc3cccc(F)c3)cc2)oc2cc(N(CCO)S(C)(=O)=O)c(OC(C)C)cc12` [Compound I-26] gave an IC50 of 82 nM. This IC50 lies about 1.5-fold lower than the previous one.

The molecule `CNC(=O)c1c(-c2ccc(Oc3ccc(Cl)cc3)cc2)oc2cc(N(CCO)S(C)(=O)=O)c(OC(C)C)cc12` [Compound I-27] gave an IC50 of 70 nM.

Take `CNC(=O)c1c(-c2ccc(Nc3ccccc3)cc2)oc2cc(N(CCO)S(C)(=O)=O)c(OC(C)C)cc12` [Compound I-28, 6-[(2-Hydroxy-ethyl)-methanesulfonyl-amino]-5-isopropoxy-2-(4-phenylamino-phenyl)-benzofuran-3-carboxylic acid methylamide]: half-maximal inhibition (IC50) was put at 42 nM.

The molecule `CNC(=O)c1c(-c2ccc(Nc3cccc(F)c3)cc2)oc2cc(N(CCO)S(C)(=O)=O)c(OC(C)C)cc12` [Compound I-29] registered an IC50 of 94 nM.

With `CNC(=O)c1c(-c2ccc(Nc3ccc(Cl)cc3)cc2)oc2cc(N(CCO)S(C)(=O)=O)c(OC(C)C)cc12` [Compound I-30], the IC50 was determined as 815 nM.

`CNC(=O)c1c(-c2ccc(Nc3ccc(F)cc3)cc2)oc2cc(N(CCO)S(C)(=O)=O)c(OC(C)C)cc12` [Compound I-31] had an IC50 of 92 nM. This IC50 lies about 8.9-fold lower than the previous one.

As to `CNC(=O)c1c(-c2ccc(Nc3ccccc3F)cc2)oc2cc(N(CCO)S(C)(=O)=O)c(OC(C)C)cc12` [Compound I-34], the IC50 was 64 nM.

The molecule `CNC(=O)c1c(-c2ccc(Oc3ccc(F)cc3)cc2)oc2cc(N(C)S(C)(=O)=O)c(OC)cc12` [Compound I-35] registered an IC50 of 51 nM.

In the case of `CNC(=O)c1c(-c2ccc(Oc3ccccc3F)cc2)oc2cc(N(C)S(C)(=O)=O)c(OC)cc12` [Compound I-36], the half-maximal inhibitory concentration (IC50) was determined as 48 nM.

The molecule `CNC(=O)c1c(-c2ccc(Oc3cccc(Cl)c3)cc2)oc2cc(N(CCO)S(C)(=O)=O)c(OC)cc12` [Compound I-38] yielded an IC50 of 50 nM.

Turning to `CNC(=O)c1c(-c2ccc(Oc3ccc(F)cc3F)cc2)oc2cc(N(CCO)S(C)(=O)=O)c(OC(C)C)cc12` [Compound I-39], the IC50 was 195 nM.

`CCN(c1cc2oc(-c3ccc(Oc4ccc(F)cc4)cc3)c(C(=O)NC)c2cc1C1CC1)S(C)(=O)=O` [Compound I-42] came in with a half-maximal inhibitory concentration (IC50) of 143 nM.

`CNC(=O)c1c(-c2ccc(Oc3ccc(F)cc3)cc2)oc2cc(NS(C)(=O)=O)c(OC)cc12` [Compound I-43] registered an IC50 of 238 nM. This IC50 is about 1.7-fold higher than that of the molecule before.

As for `CNC(=O)c1c(-c2ccc(Oc3ccccc3Cl)cc2)oc2cc(N(CCO)S(C)(=O)=O)c(OC)cc12` [Compound I-44], 82 nM corresponded to half-maximal inhibition (IC50).

As for `CNC(=O)c1c(-c2ccc(Oc3ccc(F)c(F)c3)cc2)oc2cc(N(CCO)S(C)(=O)=O)c(OC)cc12` [Compound I-45], the IC50 is 48 nM.

`CNC(=O)c1c(-c2ccc(Oc3cccc(Cl)c3)cc2)oc2cc(N(CCO)S(C)(=O)=O)c(OC(C)C)cc12` [Compound I-46] displayed an IC50 of 51 nM.

Turning to `CNC(=O)c1c(-c2ccc(Oc3cccc(C#N)c3)cc2)oc2cc(N(CCO)S(C)(=O)=O)c(OC)cc12` [Compound I-47], inhibition was half-maximal at 338 nM (IC50). Against the preceding molecule, the IC50 is about 6.6-fold higher.

As to `CNC(=O)c1c(-c2ccc(Oc3ccc(C#N)cc3)cc2)oc2cc(N(CCO)S(C)(=O)=O)c(OC)cc12` [Compound I-48], inhibition was half-maximal at 1070 nM (IC50).

Turning to `CNC(=O)c1c(-c2ccc(Oc3ccccc3Cl)cc2)oc2cc(N(CCO)S(C)(=O)=O)c(OC(C)C)cc12` [Compound I-49], the half-maximal inhibitory concentration (IC50) was 143 nM.

`CNC(=O)c1c(-c2ccc(Oc3ccc(F)c(F)c3)cc2)oc2cc(N(CCO)S(C)(=O)=O)c(OC(C)C)cc12` [Compound I-50] came in with an IC50 of 261 nM.

`CCc1cc2c(C(=O)NC)c(-c3ccc(Oc4ccc(F)cc4)cc3)oc2cc1N(CCO)S(C)(=O)=O` [Compound I-51, 5-Ethyl-2-[4-(4-fluoro-phenoxy)-phenyl]-6-[(2-hydroxy-ethyl)-methanesulfonyl-amino]-benzofuran-3-carboxylic acid methylamide] came in with a concentration for half-maximal inhibition (IC50) of 88 nM.
